The record followed here is paper PMC12128024, “Copper(II) Cyclopeptides with High ROS-Mediated Cytotoxicity” (Bioconjugate Chemistry, 2025).

*1 amine or outer side, *2 acyl side, *3 side chain or, on linkers, in order; H or OH if unused. Where a SMILES comes first, the peptide text is derived from it. [ ]: non-standard residue; d: D form. X1 = O=C(c1ccc(-c2ccc(N[*:1])cn2)nc1)[*:2]; βAla = NCCC(=O)O

Assay [1] is described as follows: Fluorescence titration of cyclopeptides with Cu(II) ions (DynaFit fit). It is filed as binding. To be noted: 2 μM cyclopeptide, 1 mM phosphate buffer, 10 mM NaCl, pH 6.5; 1: 1:2 model (cyclopeptide:metal); 2: simplified model with 1:1 and 2:1 species; read-out: global dissociation constant K D. An excerpt:
While the 2,2′-bipyridine ligand is known to be weakly emissive and for all practical purposes considered nonfluorescent, , the 5′-amido-[2,2′-bipyridine]-5-carboxamide unit in the βAlaBpy building block is highly emissive, displaying an intense emission band at c.a. 410 nm with a quantum yield of 0.37. Furthermore, the fluorescence of the βAlaBpy units is quenched upon coordination to a wide range of divalent transition metal ions. We exploited this property to monitor the coordinative properties of cyclopeptides 1 and 2 in the presence of labile Cu(II) ions in aqueous media. Thus, we measured the emission spectra of 2 μM solutions of the cyclopeptides 1 and 2 in 1 mM phosphate buffer and 10 mM NaCl, pH 6.5, upon excitation at 308 nm in the presence of increasing concentrations of Cu(II) ions. […] Therefore, the affinity of the first part of the titrations cannot be determined with this experiment as it is too strong. […]
5.2. Fluorescence titration experiments
Luminescence experiments were made with a Varian Cary Eclipse Fluorescence spectrophotometer coupled to a Cary Single Cell Peltier accessory (Agilent Technologies) temperature controller. […]
emission spectrum was recorded (λex= 308 nm; λem= 410 nm) after each addition. […]

In assay [2] the test system is HCT-116 (colon carcinoma). To be noted: 48 h.
Source text: IC50 is the concentration at which 50% growth inhibition is obtained and E max represents the efficacy of the compound at its maximum concentration, expressed as the maximum % cell inhibition achieved by the compound (see Section S6 and Figure S8 of the Supporting Information).
General method: cell lines and grown conditions
Non-small lung carcinoma NCI-H460, human colon carcinoma HCT-116, human glioma SF-268
and doxorubicin-resistance human mamma carcinoma NCI/ADR-RES cell lines, as well as
Eagle’s Minimal Essential Medium (EMEM) and RPMI1640 were purchased from the American Tissue Culture Collection (ATCC). Frozen cells were thawed in a 75 cm2 cell culture flask in RPMI
supplemented with 2 mM L-glutamine and 10% FBS and maintained at 37 °C in a 5% CO2
The inhibition of cell proliferation induced by the samples [1/Cu(II), 1 eq. cyclopeptide 1/3 eq. of
Cu(II); 2/Cu(II), 1 eq. cyclopeptide 2/5 eq. of Cu(II)]‚ was carried out by using MTT method for
HCT-116, NCI/ADR-RES and NCI-H460 cell lines. SF-268 cell growth inhibition induced by the
samples was assessed using a system based on crystal violet cell staining and subsequent
acetylation. Cells were seeded in a 96-well microplate (5000 cells/well for HCT-116, 10000
cells/well for SF-268 and 15000 cells/well for NCI/ADR-RES and NCI-H460 cell lines) in 100 μl
of growth medium and maintained at 37 °C for 24 h.
Then growth medium was replaced by fresh medium containing different concentrations of the
samples to be assayed and maintained at 37 °C in a 5% CO2 atmosphere for 48 h. After this
time, 10 μL MTT (5 mg/ml in PBS) were added to each well and maintained for 4 h at 37 °C in a
5% CO2 atmosphere. Then 100 μL of 10% SDS in 0.01 M HCl were added to each well an
incubated for 12-14 h under the same experimental conditions. Absorbance due to formation
was detected in a Tecan infinity M1000 Pro reader using a wavelength of 595 nm. All assays
were performed with triplicate points.
b) Crystal violet cell staining
The samples dissolved in water were added, maintaining the same proportion of water in each
well (10%). After 72 h (at 37°C and in an atmosphere of 5% CO 2/95% air), the cells were fixed to
the plate with 10 μL of 11% glutaraldehyde solution, kept under agitation at room temperature,
for 15 minutes. Once fixed, the medium was removed and the cells were washed 3-4 times with
distilled water, followed by staining of the cells with 100 μL of a 0.1% crystal violet solution. This
solution was prepared by diluting 0.1g of crystal violet in 100 mL of buffer composed of 200 mM
phosphoric acid, 200 mM formic acid and 200 mM 2-(N-morpholino)-ethane sulphonic acid
(MES) at pH 6. The plate was kept shaking at room temperature for 15 minutes. The dye was
removed, washed 3-4 times with distilled water and dried. 100 μL of 10% acetic acid was then
added and kept under agitation for 15 minutes, at room temperature, so that the staining was
homogeneous in all wells. Finally, an absorbance reading of the plates was performed at a
wavelength of 595 nm (Tecan M1000 Infinite Pro). The assay was performed with triplicate points.
Data were expressed as the growth inhibition percentage calculated in basis on the equation: %
inhibition= 100 – [(AO × 100) / AT]. Where AT is the measured absorbance in wells containing
compounds and AO is the absorbance measured in blank wells (cells with medium and vehicle).
The inhibitory potency of compounds was calculated by constructing concentration-% growth
inhibition curves, and extrapolating IC50 values (concentration of compound that inhibits cells

`N=C(N)NCCC[C@@H]1NC(=O)c2ccc(nc2)-c2ccc(cn2)NC(=O)CCNC(=O)[C@H](CCCNC(=N)N)NC(=O)[C@H](CCCNC(=N)N)NC(=O)[C@H](CCCNC(=N)N)NC(=O)c2ccc(nc2)-c2ccc(cn2)NC(=O)CCNC(=O)[C@H](CCCNC(=N)N)NC(=O)[C@H](CCCNC(=N)N)NC1=O` [compound 1, cyclo-(βAlaBpy-Arg3)2] (cyclo([X1]RRR[βAla][X1]RRR[βAla])): the Kd in assay [1] is 390 ± 190 nM. Besides, in assay [2], the “E max (maximum % cell inhibition)” value is given as 27 ± 1% and the IC50 was more than 100000 nM.
